Consider four compounds from US20090029995A1, “HETERO BIARYL DERIVATIVES AS MATRIX METALLOPROTEINASE INHIBITORS” (WARNER-LAMBERT COMPANY, priority 2002, published 2009).

For orientation: IC50 means the concentration needed to halve the response being measured. The melting point is the temperature, or range, at which the solid turns liquid.

The target of one series is T1, MMP-13 catalytic domain (Homo sapiens, UniProt P45452).
T1 construct: use the catalytic domain of the MMP-13 enzyme, namely matrix metalloproteinase-13 catalytic domain (“MMP-13CD”)
Kind of series: MMP-13 catalytic domain inhibition (thiopeptolide substrate hydrolysis). The following applies: read-out: MMP-13CD IC50. It is filed as biochemical. An excerpt:
The assays measure the amount by which a test compound reduces the hydrolysis of a thiopeptolide substrate catalyzed by a matrix metalloproteinase enzyme. […] One such assay is described below in Biological Method 1.
Some of the particular methods described below use the catalytic domain of the MMP-13 enzyme, namely matrix metalloproteinase-13 catalytic domain (“MMP-13CD”), rather than the corresponding full-length enzyme, MMP-13.
Thiopeptolide substrates show virtually no decomposition or hydrolysis at or below neutral pH in the absence of a matrix metalloproteinase enzyme. A typical thiopeptolide substrate commonly utilized for assays is Ac-Pro-Leu-Gly-thioester-Leu-Leu-Gly-OEt. […] Assays are carried out with and without matrix metalloproteinase inhibitor compounds, and the amount of hydrolysis is compared for a determination of inhibitory activity of the test compounds.

The next series concerns the target T2, MMP-12 catalytic domain (Homo sapiens, UniProt P39900).
T2 construct: MMP-12 catalytic domain, MMP-14 catalytic domain, and MMP-17 catalytic domain
Kind of series: MMP-12 catalytic domain inhibition (thiopeptolide substrate hydrolysis). It is filed as biochemical. The conditions noted are these: read-out: MMP-12CD IC50. The source says:
(§1) Certain compounds of Formula I have been assayed with MMP-1 full-length, MMP-3 catalytic domain, MMP-7 full-length, MMP-8 full-length, MMP-9 full-length, MMP-12 catalytic domain, MMP-14 catalytic domain, and MMP-17 catalytic domain.
(§2) The assays measure the amount by which a test compound reduces the hydrolysis of a thiopeptolide substrate catalyzed by a matrix metalloproteinase enzyme. Such assays are described in detail by Ye et al., in Biochemistry, 1992; 31(45): 11231-11235, which is incorporated herein by reference. One such assay is described below in Biological Method 1.
Thiopeptolide substrates show virtually no decomposition or hydrolysis at or below neutral pH in the absence of a matrix metalloproteinase enzyme. A typical thiopeptolide substrate commonly utilized for assays is Ac-Pro-Leu-Gly-thioester-Leu-Leu-Gly-OEt. A 100 μL assay mixture will contain 50 mM of N-2-hydroxyethylpiperazine-N′-2-ethanesulfonic acid buffer (“HEPES,” pH 7.0), 10 mM CaCl2, 100 μM thiopeptolide substrate, and 1 mM 5,5′-dithio-bis-(2-nitro-benzoic acid) (DTNB). The thiopeptolide substrate concentration may be varied, for example from 10 to 800 μM to obtain Km and Kcat values. The change in absorbance at 405 nm is monitored on a Thermo Max microplate reader (molecular Devices, Menlo Park, Calif.) at room temperature (22° C.). […]

The target of the next series is T3, MMP-17 catalytic domain (Homo sapiens, UniProt Q9ULZ9).
T3 construct: MMP-12 catalytic domain, MMP-14 catalytic domain, and MMP-17 catalytic domain
T3 sequence (Q9ULZ9 126-295 limits assumed): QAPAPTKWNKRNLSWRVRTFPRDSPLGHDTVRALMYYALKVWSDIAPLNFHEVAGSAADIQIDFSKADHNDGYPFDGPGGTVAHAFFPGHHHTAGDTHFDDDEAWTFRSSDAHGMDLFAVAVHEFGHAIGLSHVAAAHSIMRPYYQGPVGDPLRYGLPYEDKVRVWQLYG
Put plainly: MMP-17 catalytic domain inhibition (thiopeptolide substrate hydrolysis). It is filed as biochemical. The conditions noted are these: read-out: MMP-17CD IC50.
Source text: as §1, §2
(§3) Thiopeptolide substrates show virtually no decomposition or hydrolysis at or below neutral pH in the absence of a matrix metalloproteinase enzyme. A typical thiopeptolide substrate commonly utilized for assays is Ac-Pro-Leu-Gly-thioester-Leu-Leu-Gly-OEt. A 100 μL assay mixture will contain 50 mM of N-2-hydroxyethylpiperazine-N′-2-ethanesulfonic acid buffer (“HEPES,” pH 7.0), 10 mM CaCl2, 100 μM thiopeptolide substrate, and 1 mM 5,5′-dithio-bis-(2-nitro-benzoic acid) (DTNB). The thiopeptolide substrate concentration may be varied, for example from 10 to 800 μM to obtain Km and Kcat values. The change in absorbance at 405 nm is monitored on a Thermo Max microplate reader (molecular Devices, Menlo Park, Calif.) at room temperature (22° C.). The calculation of the amount of hydrolysis of the thiopeptolide substrate is based on E412=13600 M^−1 cm^−1 for the DTNB-derived product 3-carboxy-4-nitrothiophenoxide. Assays are carried out with and without matrix metalloproteinase inhibitor compounds, and the amount of hydrolysis is compared for a determination of inhibitory activity of the test compounds.
(§4) Test compounds were evaluated at various concentrations in order to determine their respective IC50 values, the micromolar concentration of compound required to cause a 50% inhibition of catalytic activity of the respective enzyme.

The next series has as its target MMP-14 catalytic domain (Homo sapiens, UniProt P50281). Kind of series: MMP-14 catalytic domain inhibition (thiopeptolide substrate hydrolysis). The series is classed as biochemical. The following applies: read-out: MMP-14CD IC50.
Source text: as §1, §2, §3, §4
(§5) The test described above for the inhibition of MMP-13 may also be adapted and used to determine the ability of the compounds of Formula I to inhibit the matrix metalloproteases MMP-1, MMP-2, MMP-3, MMP-7, MMP-9, MMP-12 and MMP-14.
(§6) Some representative compounds of Formula I have been evaluated for their ability to inhibit MMP-13. Inhibitor activity versus other MMPs with the compounds may be determined using, for example, MMP-1FL, which refers to full length interstitial collagenase; MMP-2FL, which refers to full length Gelatinase A; MMP-3CD, which refers to the catalytic domain of stromelysin; MMP-7FL, which refers to full length matrilysin; MMP-9FL, which refers to full length Gelatinase B; MMP-13CD, which refers to the catalytic domain of collagenase 3; and MMP-14CD, which refers to the catalytic domain of MMP-14. […]

The target of the next series is T4, MMP-8 full-length (Homo sapiens, UniProt P22894).
T4 construct: MMP-7 full-length, MMP-8 full-length, MMP-9 full-length
Put plainly: MMP-8 full-length inhibition (thiopeptolide substrate hydrolysis). It is filed as biochemical. The conditions noted are these: read-out: MMP-8FL IC50.
Source text: as §1, §2, §3, §4

A further series has as its target MMP-3 catalytic domain (Homo sapiens, UniProt P08254). Kind of series: MMP-3 catalytic domain inhibition (thiopeptolide substrate hydrolysis, MES buffer pH 6.0). The series is classed as biochemical. The conditions noted are these: read-out: MMP-3CD IC50.
Source text: as §1, §2, §3, §4
It should be appreciated that the assay buffer used with MMP-3CD was 50 mM N-morpholinoethane sulfonate (“MES”) at pH 6.0 rather than the HEPES buffer at pH 7.0 described above. […]
as §6

A further series concerns the target MMP-9 full-length (Homo sapiens, UniProt P14780). Put plainly: MMP-9 full-length inhibition (thiopeptolide substrate hydrolysis). It is filed as biochemical. The following applies: read-out: MMP-9FL IC50.
Source text: as §1, §2, §3, §4, §5, §6

The next series addresses T5, MMP-7 full-length (Homo sapiens, UniProt P09237).
T5 sequence (P09237 95-267): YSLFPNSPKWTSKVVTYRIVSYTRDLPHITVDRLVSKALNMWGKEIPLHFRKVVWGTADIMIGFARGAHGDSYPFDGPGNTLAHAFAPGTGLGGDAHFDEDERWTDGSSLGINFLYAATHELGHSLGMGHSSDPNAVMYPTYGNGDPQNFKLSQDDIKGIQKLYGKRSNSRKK
Kind of series: MMP-7 full-length inhibition (thiopeptolide substrate hydrolysis). The series is classed as biochemical.
Source text: as §1, §2
(§7) Thiopeptolide substrates show virtually no decomposition or hydrolysis at or below neutral pH in the absence of a matrix metalloproteinase enzyme. A typical thiopeptolide substrate commonly utilized for assays is Ac-Pro-Leu-Gly-thioester-Leu-Leu-Gly-OEt. A 100 μL assay mixture will contain 50 mM of N-2-hydroxyethylpiperazine-N′-2-ethanesulfonic acid buffer (“HEPES,” pH 7.0), 10 mM CaCl2, 100 μM thiopeptolide substrate, and 1 mM 5,5′-dithio-bis-(2-nitro-benzoic acid) (DTNB). The thiopeptolide substrate concentration may be varied, for example from 10 to 800 μM to obtain Km and Kcat values. The change in absorbance at 405 nm is monitored on a Thermo Max microplate reader (molecular Devices, Menlo Park, Calif.) at room temperature (22° C.). The calculation of the amount of hydrolysis of the thiopeptolide substrate is based on E412=13600 M^−1 cm^−1 for the DTNB-derived product 3-carboxy-4-nitrothiophenoxide. […]
as §6

Another series addresses T6, MMP-1 full-length (Homo sapiens, UniProt P03956).
T6 sequence (P03956 100-469): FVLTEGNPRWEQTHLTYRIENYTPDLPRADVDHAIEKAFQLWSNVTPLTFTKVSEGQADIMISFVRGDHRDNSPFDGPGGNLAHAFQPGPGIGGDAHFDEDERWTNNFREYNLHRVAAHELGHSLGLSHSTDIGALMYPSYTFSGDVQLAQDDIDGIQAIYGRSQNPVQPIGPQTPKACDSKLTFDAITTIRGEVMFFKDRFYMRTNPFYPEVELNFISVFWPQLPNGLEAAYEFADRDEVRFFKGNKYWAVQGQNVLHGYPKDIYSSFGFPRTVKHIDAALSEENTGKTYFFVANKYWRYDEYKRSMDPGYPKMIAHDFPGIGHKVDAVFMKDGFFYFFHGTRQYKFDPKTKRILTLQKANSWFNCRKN
Put plainly: MMP-1 full-length inhibition (thiopeptolide substrate hydrolysis). The following applies: read-out: MMP-1FL IC50. It is filed as biochemical.
Source text: as §1, §2, §7, §6

Where only a bound is given, the exact number is not on record here.

Chain of MMP-3 catalytic domain (P08254 100-272 limits assumed): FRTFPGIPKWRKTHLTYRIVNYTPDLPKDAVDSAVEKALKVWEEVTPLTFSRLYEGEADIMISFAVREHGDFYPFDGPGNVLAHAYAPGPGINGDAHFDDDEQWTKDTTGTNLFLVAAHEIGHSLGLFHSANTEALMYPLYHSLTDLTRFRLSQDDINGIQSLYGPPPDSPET
T4 sequence (P22894 101-467): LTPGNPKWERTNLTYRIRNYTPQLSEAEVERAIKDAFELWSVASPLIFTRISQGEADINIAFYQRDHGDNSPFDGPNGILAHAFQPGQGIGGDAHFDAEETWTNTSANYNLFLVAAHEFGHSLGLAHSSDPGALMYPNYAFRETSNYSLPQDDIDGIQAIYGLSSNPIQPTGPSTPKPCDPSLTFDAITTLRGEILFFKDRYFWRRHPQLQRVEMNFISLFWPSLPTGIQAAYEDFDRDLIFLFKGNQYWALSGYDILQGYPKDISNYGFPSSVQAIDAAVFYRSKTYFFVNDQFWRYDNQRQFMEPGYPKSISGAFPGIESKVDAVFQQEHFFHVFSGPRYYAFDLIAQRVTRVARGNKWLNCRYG
Chain of MMP-9 full-length (P14780 94-707): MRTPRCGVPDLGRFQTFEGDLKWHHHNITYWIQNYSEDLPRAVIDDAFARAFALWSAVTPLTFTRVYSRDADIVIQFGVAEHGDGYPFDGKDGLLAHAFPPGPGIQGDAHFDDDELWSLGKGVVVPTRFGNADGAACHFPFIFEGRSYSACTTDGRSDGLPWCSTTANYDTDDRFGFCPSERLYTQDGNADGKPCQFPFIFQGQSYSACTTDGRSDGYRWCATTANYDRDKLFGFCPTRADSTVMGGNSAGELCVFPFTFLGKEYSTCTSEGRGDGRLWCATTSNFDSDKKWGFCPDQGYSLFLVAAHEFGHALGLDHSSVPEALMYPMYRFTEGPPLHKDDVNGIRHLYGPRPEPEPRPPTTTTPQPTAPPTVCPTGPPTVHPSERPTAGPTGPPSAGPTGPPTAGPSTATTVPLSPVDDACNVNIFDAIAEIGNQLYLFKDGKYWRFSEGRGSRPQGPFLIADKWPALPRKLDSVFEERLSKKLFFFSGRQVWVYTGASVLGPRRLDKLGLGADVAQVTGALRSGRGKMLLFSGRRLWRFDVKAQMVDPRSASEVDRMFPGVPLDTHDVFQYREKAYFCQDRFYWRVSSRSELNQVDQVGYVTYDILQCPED
T2 sequence (P39900 106-263 limits assumed): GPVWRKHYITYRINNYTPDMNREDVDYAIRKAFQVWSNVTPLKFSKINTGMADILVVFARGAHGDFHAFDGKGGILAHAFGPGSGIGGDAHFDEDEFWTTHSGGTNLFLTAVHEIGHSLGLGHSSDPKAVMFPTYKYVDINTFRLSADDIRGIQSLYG

Consider `O=C(O)c1ccc(Cn2nnc(-c3cccc(C#CCc4ccc(F)cc4)c3)n2)cc1` [Example C4, 4-(5-{3-[3-(4-Fluoro-phenyl)-prop-1-ynyl]-phenyl}-tetrazol-2-ylmethyl)-benzoic acid], for which the melting point lay in the range of 210 to 212 °C. Moreover, the half-inhibitory concentration (IC50) on MMP-13 catalytic domain is 0.0015 µM. For the same compound, the IC50 on MMP-12 catalytic domain was 18 µM. Besides, the half-inhibitory concentration (IC50) on MMP-17 catalytic domain came out at 30 µM. For the same compound, the IC50 on MMP-14 catalytic domain was above 30 µM. Also, at MMP-8 full-length, the IC50 is above 100 µM. Further, the half-maximal inhibitory concentration (IC50) on MMP-3 catalytic domain is 4.7 µM. Besides, the IC50 on MMP-9 full-length was above 100 µM.

On to `COc1ccc(CC#Cc2cncc(-c3nnn(Cc4ccc(C(=O)O)cc4)n3)c2)cc1` [Example H4, 4-(5-{5-[3-(4-Methoxy-phenyl)-prop-1-ynyl]-pyridin-3-yl}-tetrazol-2-ylmethyl)-benzoic acid], for which the IC50 was 0.0027 µM on MMP-13 catalytic domain; above 30 µM at MMP-7 full-length; above 100 µM on MMP-17 catalytic domain; above 100 µM on MMP-1 full-length; above 30 µM on MMP-14 catalytic domain; above 100 µM on MMP-8 full-length. The concentration for half-maximal inhibition (IC50) at MMP-3 catalytic domain was 4.3 µM; on MMP-9 full-length it was above 30 µM.

Regarding `O=C(O)c1ccc(Cc2nnc(-c3cccc(C#CCc4ccc(F)cc4)c3)s2)cc1` [Example C2, 4-(5-{3-[3-(4-Fluoro-phenyl)-prop-1-ynyl]-phenyl}-[1,3,4]thiadiazol-2-ylmethyl)-benzoic acid], the IC50 at MMP-13 catalytic domain was 0.0011 µM; at MMP-7 full-length it was 7.9 µM; on MMP-17 catalytic domain, above 100 µM; on MMP-1 full-length, above 30 µM; on MMP-14 catalytic domain it was 27 µM; at MMP-8 full-length, above 100 µM. The half-maximal inhibitory concentration (IC50) is 100 µM at MMP-3 catalytic domain and above 30 µM at MMP-9 full-length.

In turn, `O=C(O)c1ccc(Cn2nnc(-c3ccnc(C(=O)NCc4ccc(F)cc4)c3)n2)cc1` [Example F12, 4-{5-[2-(4-Fluoro-benzylcarbamoyl)-pyridin-4-yl]-tetrazol-2-ylmethyl}-benzoic acid] yielded a melting point of 193 to 194 °C. The IC50 on MMP-13 catalytic domain was determined as 0.0017 µM. The compound also gave an IC50 against MMP-7 full-length above 100 µM. Moreover, at MMP-1 full-length, the IC50 is above 100 µM. The IC50 on MMP-14 catalytic domain is above 100 µM. Moreover, on MMP-8 full-length, the IC50 is above 100 µM. For the same compound, on MMP-3 catalytic domain, the IC50 came to 100 µM. The IC50 on MMP-9 full-length was above 100 µM.
